Data reported in patent publication US10709724B2, “Methods of treating mitochondrial dysfunction” (Ecole Polytechnique Federale de Lausanne (EPFL), priority 2011, dated 2020).

Experiments:
PDK4 and UCP-3 promoters = experiment: ChIP of PGC-1α promoter occupancy in C2C12 myotubes; type: cell-based; details: 1 μM, 48 h
Description: Chromatin Immunoprecipitation (ChIP). ChIP was performed according to (Bai et al., 2007). FLAG-HA-PGC-1 (Rodgers et al., 2005) was introduced by adenoviral transfer into C2C12 myotubes after 48 h of differentiation and cells were cultured for an additional 2 days. […] Thereafter ChIP was performed using anti-FLAG (Sigma) and anti-TNF-R1 (Santa Cruz) as described (Bai et al., 2007). Pelleted DNA was quantified by qPCR using the primers against PDK4 and UCP-3 promoters flanking the nuclear receptor site (Table 3 and 6). The results were normalized for the signal of the respective inputs (vehicle/PJ34-treated) and were expressed as a percentage. The signal of anti-TNF-R1 (non-specific antibody) was subtracted from the anti-FLAG signal (specific) and the specific signal was plotted. Primers for ChIP are summarized in Supplementary Table 3 and 6.

C57Bl/6J male mice = experiment: PJ34 treatment of mice (5 days); type: in vivo; details: 10 mg/kg i.p. twice a day
Description: Animal Experiments. Male PARP-1^+/+ and PARP-1^−/− mice on a pure C57Bl/6J background (Menissier-de Murcia et al., 1997) were used. Mice were housed separately, had ad libitum access to water and standard rodent chow (10 kcal % of fat, Safe, Augy, France) or to a high calorie, high fat diet (60 kcal % of fat, Research. Diets, New Brunswick, N.J., USA), and were kept under a 12 h dark-light cycle. In other animal experiments, 8 weeks-old male C57Bl/6J mice were purchased from Charles River and powder chow (D12450B) and high fat (D12492) diets were from Research Diets Inc (New Brunswick, N.J., USA). 80 ml of water per kg of powder CD were used to make food pellets. 40 ml of water per kg of powder HFD were used to make food pellets. For NR, NMN and NA supplemented diets, the appropriate amount of these compounds was added to the water used to create the pellets, taking into account the differences in the daily intake of each diet. Mice were housed separately, had ad libitum access to water and food and were kept under a 12 h dark-light cycle. Mice were fed with homemade pellets from 10 weeks of age. To make the pellets, the powder food was mixed with water (vehicle) or with NR. All animal experiments were carried out according to local national and EU ethical guidelines. To monitor body weight, mice were weighed and the food consumption was measured each week on the same day. In case of PJ34 treatment, mice received each 12 h (at 7:00 and 19:00) 10 mg/kg PJ34 by intraperitoneal injection for 5 continuous days. In all studies animals were killed (at 14:00) either after CO2 inhalation or cervical dislocation after 6 h of fasting (starting at 8:00), and tissues were collected and processed as specified below. Oral glucose tolerance test, intraperitoneal insulin tolerance test, free fatty acid (FFA) and triglycerides were determined as described (Lagouge et al., 2006). Plasma insulin and was determined in heparinized plasma samples using specific ELISA kits (Mercodia). Blood samples were collected in heparinized tubes and plasma was isolated after centrifugation. Plasma parameters were measured using a Cobas c111 (Roche Diagnostics). Thermoadaptation was performed as described (Lagouge et al., 2006). We measured O2 consumption, CO2 production, and spontaneous locomotor activity in an open circuit indirect calorimetry system (Sabre systems, Las Vegas, Nev., USA) over 24-48 has described (Dali-Youcef et al., 2007; Lagouge et al., 2006; Watanabe et al., 2006). […] The respiratory quotient was the ratio of CO2 production over O2 consumption. During actimetry, beamline crossings were summarized each 15 minutes. […] Euglycemic-hyperinsulinemic clamps were performed in PARP-1^−/− and ^+/+ male mice (n=4 mice per genotype; age=4 months) exactly as previously described (Feige et al, 2008).
mRNA and mtDNA Analysis. Total RNA was prepared using TRIzol (Invitrogen) according to the manufacturer's instructions. RNA was treated with DNase, and 2 μg of RNA was used for reverse transcription (RT). cDNA was purified on QIAquick PCR cleanup columns (Qiagen, Valencia, Calif., USA). 50× diluted cDNA was used for RT-quantitative PCR (RT-VCR) VCR) reactions (Bai et al., 2007). The RT-qPCR reactions were performed using the Light-Cycler system (Roche Applied Science) and a qPCR Supermix (Qiagen) with the primers for mice summarized in Table 1 and 4, and with the primers for worms summarized on Table 7. mtDNA quantification was performed as described (Lagouge et al., 2006) with the primers indicated in Table 2 and 5.
Immunoprecipitation, SDS-PAGE, Western Blotting. Cells were lysed in lysis buffer (50 mM Tris, […], EDTA 1 mM, NP40 1%, nicotinamide 5 mM, Na-butyrate 1 in M, protease inhibitors pH7.4). Proteins were separated by SDS-PAGE and transferred onto nitrocellulose membranes. The origin of the primary and secondary antibodies used can be found as supplemental experimental procedures. […]

Structure (SMILES): CN(C)CC(=O)Nc1ccc2[nH]c(=O)c3ccccc3c2c1 [PJ34]
- PGC-1 binding to the UCP3 promoter (PDK4 and UCP-3 promoters): not regulated through the binding of PGC-1 to its promoter
- PGC-1α recruitment to the PDK4 promoter (PDK4 and UCP-3 promoters): increased PGC-1α recruitment to target-genes
- Dio2 mRNA in BAT (C57Bl/6J male mice): significantly induced
- Myoglobin mRNA levels in muscle (C57Bl/6J male mice): increase in Myoglobin mRNA levels
- NAD+ levels in BAT and muscle (C57Bl/6J male mice): edged up in PJ34-treated animals, even though the increase was only statistically significant in muscle
- PARP activity in BAT and muscle (C57Bl/6J male mice): robustly decrease PARP activity
- PGC-1α acetylation levels in BAT and muscle (C57Bl/6J male mice): reduced PGC-1α acetylation levels
- mitochondrial gene expression in BAT and muscle (Ndufa2, Ndufa5, UCP2, UCP3) (C57Bl/6J male mice): tendency to a higher expression of a number of mitochondrial genes
- triglycerides (C57Bl/6J male mice; vehicle 1.21±0.08, p=0.08): 1.11 ± 0.04 mM
- free fatty acid levels (C57Bl/6J male mice; vehicle 1.59±0.06, p=0.03): 1.44±0.03 mEq/L
- blood glucose (C57Bl/6J male mice; vehicle 9.94±0.28, p=0.05): 9.19 ± 0.58 mM
